What follows are compounds tested on YAP/TAZ-TEAD transcription (assay: Reporter gene assay for measuring the inhibition of YAP/TAZ-TEAD transcription (TEAD-responsive element luciferase reporter in Hek293T cells)). Conditions: Homo sapiens, HEK-293T, 24 hours incubation.
Assay type: cell-based
Method in brief: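 Hek293T cells transiently transfected with a TEAD-responsive element luciferase reporter were plated onto compounds and incubated 24 h at 37 °C/5% CO2. SteadyLite luminescence gave percent inhibition, normalised to vehicle (0%) and positive control inhibitor (100%); EC50 derived.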

SMILES	EC50 [nM]
CNS(=O)(=O)NCc1cc(=O)n(-c2ccc(F)cc2)cc1-c1ccn(C)n1 [compound 238, N-methyl, N′-((1-(4-fluorophenyl)-5-(1-methyl-1H-pyrazol-3-yl)-2-oxo-1,2-dihydropyridin-4-yl)methyl)sulfamide]	> 20000
C=CC(=O)NCc1ncc(-c2ccc(F)cc2)cc1-c1nnn(C(F)F)n1 [compound 204, N-((3-(2-(difluoromethyl)-2H-tetrazol-5-yl)-5-(4-fluorophenyl)pyridin-2-yl)methyl)acrylamide]	< 1000
CCC(=O)NCc1cc(=O)n(-c2ccc(F)cc2)cc1-c1ccn(C)n1 [compound 236, N-((1-(4-fluorophenyl)-5-(1-methyl-1H-pyrazol-3-yl)-2-oxo-1,2-dihydropyridin-4-yl)methyl)propionamide]	1000 to 20000
C=CC(=O)N1CCC(c2cc(-c3ccc(F)cc3)cc(-c3ccn(C(F)F)n3)n2)C1 (stereo not drawn) [Cpd. No. 265, 1-(3-(6-(1-(difluoromethyl)-1H-pyrazol-3-yl)-4-(4-fluorophenyl)pyridin-2-yl)pyrrolidin-1-yl)prop-2-en-1-one]	< 1000
C=CC(=O)NCc1ccc(-c2ccccc2)cc1-c1ccn(Cc2cccnc2)n1 [compound 136, N-((3-(1-(pyridin-3-ylmethyl)-1H-pyrazol-3-yl)-[1,1′-biphenyl]-4-yl)methyl)acrylamide]	< 1000
CNS(=O)(=O)CCNc1ccc(-c2ccc(C(F)(F)F)cc2)cc1-c1ccn(CCOC)n1 [compound 105, 2-((3-(1-(2-methoxyethyl)-1H-pyrazol-3-yl)-4′-(trifluoromethyl)-[1,1′-biphenyl]-4-yl)amino)-N-methylethane-1-sulfonamide]	< 1000
c1ccc(-c2cccc(-c3nnn(Cc4cccnc4)n3)c2)cc1 [compound 047, 3-((5-([1,1′-biphenyl]-3-yl)-2H-tetrazol-2-yl)methyl)pyridine]	1000 to 20000
O=S1(=O)CCC(Nc2ccc(-c3ccccc3)cc2-c2ccn(Cc3cccnc3)n2)CC1 [compound 068, 4-((3-(1-(pyridin-3-ylmethyl)-1H-pyrazol-3-yl)-[1,1′-biphenyl]-4-yl)amino)tetrahydro-2H-thiopyran-1,1-dioxide]	1000 to 20000
C=CC(=O)Nc1ccc(-c2cccc(-c3ccn(Cc4ccccc4)n3)c2)cn1 [compound 010, N-(5-(3-(1-benzyl-1H-pyrazol-3-yl)phenyl)pyridin-2-yl)acrylamide]	1000 to 20000
C=CC(=O)NCc1c(-c2ccn(C)n2)cc(-c2ccc(F)cc2)[nH]c1=O [Cpd. No. 233, N-((6-(4-fluorophenyl)-4-(1-methyl-1H-pyrazol-3-yl)-2-oxo-1,2-dihydropyridin-3-yl)methyl)acrylamide]	> 20000
CNS(=O)(=O)CCNc1ccc(-c2cccnc2)cc1-c1ccn(Cc2cccnc2)n1 [compound 094, N-methyl-2-((4-(pyridin-3-yl)-2-(1-(pyridin-3-ylmethyl)-1H-pyrazol-3-yl)phenyl)amino)ethane-1-sulfonamide]	1000 to 20000
CCC(=O)Nc1ccc(Cn2ccc(-c3cccc(-c4ccccc4)c3)n2)cn1 [compound 039, N-(5-((3-([1,1′-biphenyl]-3-yl)-1H-pyrazol-1-yl)methyl)pyridin-2-yl)propionamide]	1000 to 20000
CCC(=O)NCc1cnc(-c2cccc(C(F)(F)F)c2)cc1-c1ccn(C(F)F)n1 [compound 216, N-((4-(1-(difluoromethyl)-1H-pyrazol-3-yl)-6-(3-(trifluoromethyl)phenyl)pyridin-3-yl)methyl)propionamide]	> 20000
NC(=O)c1ccncc1Cn1ccc(-c2cccc(-c3ccccc3)c2)n1 [compound 043, 3-((3-([1,1′-biphenyl]-3-yl)-1H-pyrazol-1-yl)methyl)isonicotinamide]	1000 to 20000
c1ccc(-c2cccc(-c3ccn(CCc4cccnc4)n3)c2)cc1 [compound 023]	1000 to 20000
CCC(=O)NCc1cnc(-c2cccc(Cl)c2)cc1-c1ccn(C(F)F)n1 [compound 214, N-((6-(3-chlorophenyl)-4-(1-(difluoromethyl)-1H-pyrazol-3-yl)pyridin-3-yl)methyl)propionamide]	> 20000
Nc1cncc(-c2cccc(-c3ccn(Cc4ccccc4)n3)c2)c1 [compound 003, 5-(3-(1-benzyl-1H-pyrazol-3-yl)phenyl)pyridin-3-amine]	1000 to 20000
C=CC(=O)Nc1ccc(-c2ccccc2)cc1-c1ccn(Cc2cccnc2)n1 [compound 080, N-(3-(1-(pyridin-3-ylmethyl)-1H-pyrazol-3-yl)-[1,1′-biphenyl]-4-yl)acrylamide]	1000 to 20000
C=CC(=O)NCc1ccc(-c2ccc(C(F)(F)F)cc2F)cc1-c1ccn(C)n1 [compound 146, N-((2′-fluoro-3-(1-methyl-1H-pyrazol-3-yl)-4′-(trifluoromethyl)-[1,1′-biphenyl]-4-yl)methyl)acrylamide]	< 1000
C=CC(=O)Nc1cc(-c2cccc(-c3ccn(Cc4ccccc4)n3)c2)ccn1 [compound 009, N-(4-(3-(1-benzyl-1H-pyrazol-3-yl)phenyl)pyridin-2-yl)acrylamide]	< 1000

SMILES	EC50 [nM]
CS(=N)(=O)CCNc1ccc(-c2ccccc2)cc1-c1ccn(Cc2cccnc2)n1 (stereo not drawn) [compound 066, imino(methyl)(2-((3-(1-(pyridin-3-ylmethyl)-1H-pyrazol-3-yl)-[1,1′-biphenyl]-4-yl)amino)ethyl)-λ^6-sulfanone]	< 1000
CNC(=O)CCNc1ccc(-c2ccccc2)cc1-c1ccn(Cc2cccnc2)n1 [compound 060, N-methyl-3-((3-(1-(pyridin-3-ylmethyl)-1H-pyrazol-3-yl)-[1,1′-biphenyl]-4-yl)amino)propanamide]	< 1000
C=CC(=O)NCc1cc(=O)n(-c2ccc(F)cc2)cc1-c1ccn(C)n1 [Cpd. No. 235, N-((1-(4-fluorophenyl)-5-(1-methyl-1H-pyrazol-3-yl)-2-oxo-1,2-dihydropyridin-4-yl)methyl)acrylamide]	> 20000
C=CC(=O)NCc1ccc(-c2ccc(C(F)(F)F)cc2)cc1-c1cnn(C2CC2)c1 [compound 168, N-((3-(1-cyclopropyl-1H-pyrazol-4-yl)-4′-(trifluoromethyl)-[1,1′-biphenyl]-4-yl)methyl)acrylamide]	< 1000
C=CC(=O)NCc1ccc(-c2ccc(F)cc2)cc1-c1ccn(C2(C)CC2)n1 [compound 175, N-((4′-fluoro-3-(1-(1-methylcyclopropyl)-1H-pyrazol-3-yl)-[1,1′-biphenyl]-4-yl)methyl)acrylamide]	< 1000
C=CC(=O)NCc1cnc(-c2ccc(C#N)cc2)cc1-c1ccn(C(F)F)n1 [compound 219, N-((6-(4-cyanophenyl)-4-(1-(difluoromethyl)-1H-pyrazol-3-yl)pyridin-3-yl)methyl)acrylamide]	< 1000
N#CCC(=O)Nc1ccc(-c2ccccc2)cc1-c1ccn(Cc2cccnc2)n1 [compound 081, 2-cyano-N-(3-(1-(pyridin-3-ylmethyl)-1H-pyrazol-3-yl)-[1,1′-biphenyl]-4-yl)acetamide]	1000 to 20000
CNS(=O)(=O)CCNc1ccc(-c2cc(F)cc(C(F)(F)F)c2)cc1-c1ccn(C)n1 [compound 128, 2-((3′-fluoro-3-(1-methyl-1H-pyrazol-3-yl)-5′-(trifluoromethyl)-[1,1′-biphenyl]-4-yl)amino)-N-methylethane-1-sulfonamide]	< 1000
C=CC(=O)NCc1ccc(-c2ccc(Cl)cc2)cc1-c1ccn(C2CC2)n1 [compound 158, N-((4′-chloro-3-(1-cyclopropyl-1H-pyrazol-3-yl)-[1,1′-biphenyl]-4-yl)methyl)acrylamide]	< 1000
c1ccc(-c2cccc(-c3ccn(Cc4ccccn4)n3)c2)cc1 [compound 021, 2-((3-([1,1′-biphenyl]-3-yl)-1H-pyrazol-1-yl)methyl)pyridine]	1000 to 20000
CNS(=O)(=O)CCNc1ccc(-c2cc(F)ccc2F)cc1-c1ccn(C)n1 [compound 123, 2-((2′,5′-difluoro-3-(1-methyl-1H-pyrazol-3-yl)-[1,1′-biphenyl]-4-yl)amino)-N-methylethane-1-sulfonamide]	< 1000
c1ccc(Cn2nccc2-c2cccc(-c3cncnc3)c2)cc1 [compound 017, 5-(3-(1-benzyl-1H-pyrazol-5-yl)phenyl)pyrimidine]	1000 to 20000
CNS(=O)(=O)CCNc1ccc(-c2ccn(C)n2)cc1-c1ccn(Cc2cccnc2)n1 [compound 096, N-methyl-2-((4-(1-methyl-1H-pyrazol-3-yl)-2-(1-(pyridin-3-ylmethyl)-1H-pyrazol-3-yl)phenyl)amino)ethane-1-sulfonamide]	1000 to 20000
C=CC(=O)Nc1cncc(-c2cccc(-c3ccn(Cc4cccc(C(F)(F)F)c4)n3)c2)c1 [compound 012, N-(5-(3-(1-(3-(trifluoromethyl)benzyl)-1H-pyrazol-3-yl)phenyl)pyridin-3-yl)acrylamide]	1000 to 20000
CNS(=O)(=O)CCNc1ccc(-c2ccc(OC(F)F)cc2)cc1-c1ccn(Cc2cccnc2)n1 [compound 099, 2-((4′-(difluoromethoxy)-3-(1-(pyridin-3-ylmethyl)-1H-pyrazol-3-yl)-[1,1′-biphenyl]-4-yl)amino)-N-methylethane-1-sulfonamide]	< 1000
N#CCNc1ccc(-c2ccccc2)cc1-c1ccn(Cc2cccnc2)n1 [compound 085, 2-((3-(1-(pyridin-3-ylmethyl)-1H-pyrazol-3-yl)-[1,1′-biphenyl]-4-yl)amino)acetonitrile]	< 1000
COc1ccc(-c2ccc(NCCS(=O)(=O)F)c(-c3ccn(Cc4cccnc4)n3)c2)cc1 [compound 110, 2-((4′-methoxy-3-(1-(pyridin-3-ylmethyl)-1H-pyrazol-3-yl)-[1,1′-biphenyl]-4-yl)amino)ethane-1-sulfonyl fluoride]	1000 to 20000
c1ccc(-c2cccc(-c3ccn(Cc4ccncc4)n3)c2)cc1 [compound 022, 4-((3-([1,1′-biphenyl]-3-yl)-1H-pyrazol-1-yl)methyl)pyridine]	1000 to 20000
CS(=O)(=O)N1CCC(c2ccc(-c3ccc(F)cc3)cc2-c2ccn(C(F)F)n2)C1 (stereo not drawn) [compound 260, 1-(difluoromethyl)-3-(4′-fluoro-4-(1-(methylsulfonyl)pyrrolidin-3-yl)-[1,1′-biphenyl]-3-yl)-1H-pyrazole]	> 20000

From US12552772B2, “2-pyrazole anilines and related analogs for inhibiting YAP/TAZ-TEAD” (KATHOLIEKE UNIVERSITEIT LEUVEN, priority 2021, dated 2026)
